From publication PMC11939470, “The Cyclic Antimicrobial Peptide C-LR18 Has Enhanced Antibacterial Activity, Improved Stability, and a Longer Half-Life Compared to the Original Peptide” (Antibiotics, 2025)

Legend:
[1] = system: E. coli ATCC25922; assay: Membrane permeability assay (propidium iodide uptake, flow cytometry); type: cell-based; conditions: melittin 4 μM, positive control, 30 min 37 °C
Description: The effect of C-LR18 on bacterial membrane permeability was measured using the propidium iodide (PI) uptake assay described in [22]. E. coli ATCC25922 in logarithmic growth phase were adjusted to 1 × 10^6 CFU/mL. C-LR18 was added with the final concentration of 4 μM. The mixtures were incubated for 30 min at 37 °C. […] After eliminating unbound dye by washing twice with PBS, the bacterial cells were detected using a flow cytometer (Ex = 535 nm/Em = 615 nm). The results were analyzed using FlowJo 6.2.1 and GraphPad Prism 5 software.

[2] = cited from earlier work
Text: An in vivo toxicity test is an essential step in the safety evaluation of exogenous drugs. The purpose is to observe the systemic toxicity of drugs on animals, including whether there are adverse physiological reactions, pathological changes in organs and tissues of the whole body, and the mortality of animals. Therefore, before the treatment of C-LR18 on E. coli-infected mice, we tested the acute toxicity of C-LR18 in mice.

[3] = system: E. coli Y1; assay: Bacterial load in liver and spleen of mice; type: in vivo; conditions: polymyxin B 1 mg/kg, positive control, one mouse every 24 h
Description: One hour after the mice were intraperitoneally injected with 0.5 mL of E. coli Y1 suspension (10^9 CFU/mL), C-LR18 was injected into the mice at a dose of 7.5 mg/kg through the tail vein. The normal saline group was used as negative control, and the polymyxin B group (1 mg/kg) was used as positive control. After that, one mouse was taken every 24 h, sacrificed via cervical dislocation, and the liver and spleen were removed, weighed, and added to PBS buffer for grinding at 3000 r/min for 2 min. The abrasive solution was diluted with sterile PBS (1:10,000), and 0.1 mL diluent was evenly coated in solid MH medium and cultured at 37 °C overnight. Colony counting was performed on the samples, and the bacterial colonization amount in liver and spleen was calculated.

[4] = system: E. coli Y1; assay: Therapeutic experiment, survival of E. coli-infected mice; type: in vivo, KM mice; conditions: polymyxin B 5.0 mg/kg ip 1 h after ip E. coli Y1 challenge, 10 mice per group
Description: The mice (female, 18–21 g) were randomly divided into 6 groups, with PBS dilution as the control group. A total of 1–5 groups were injected intraperitoneally with 0.5 mL of E. coli solution containing […] CFU/mL, respectively. After inoculation, the mice were observed continuously for 5 days, and the mortality rate was recorded. The minimum dose (LD 100) at which all mice die within 5 days was used as the optimal dose for the bacterial attack in this experiment.
In order to further evaluate the therapeutic potential of antimicrobial peptide C-LR18, a mouse model infected with E. coli was constructed in this study. The Km mice (female, 18–21 g) were maintained at constant room temperature [(25 ± 2) °C] with free access to food and water for 48 h. […] A total of 0.5 mL of E. coli Y1 suspension (10^9 CFU/m L) was intraperitoneally injected into each group of mice. One hour after challenge, different doses of C-LR18 (2.5 mg/kg, 5 mg/kg, and 7.5 mg/kg) and polymyxin B (5 mg/kg) were intraperitoneally injected into mice. The group injected with the same dose of physiological water was the control group.

Compound: CC[C@H](C)[C@H](NC(=O)CN)C(=O)NCC(=O)N[C@@H](C)C(=O)N[C@H](C(=O)N[C@@H](CC(C)C)C(=O)N[C@@H](CCCCN)C(=O)N[C@H](C(=O)N[C@@H](CC(C)C)C(=O)N[C@H](C(=O)N[C@H](C(=O)NCC(=O)N[C@@H](CC(C)C)C(=O)N1CCC[C@H]1C(=O)N[C@@H](C)C(=O)N[C@@H](CC(C)C)C(=O)N[C@H](C(=O)N[C@@H](CO)C(=O)N[C@@H](Cc1c[nH]c2ccccc12)C(=O)N[C@H](C(=O)N[C@@H](CCCCN)C(=O)N[C@@H](CCCNC(=N)N)C(=O)N[C@@H](CCCCN)C(=O)N[C@@H](CCCNC(=N)N)C(=O)N[C@@H](CCC(N)=O)C(=O)N[C@@H](CCC(N)=O)C(N)=O)[C@@H](C)CC)[C@@H](C)CC)[C@@H](C)O)[C@@H](C)O)C(C)C)C(C)C [Melittin, reference compound]
- PI fluorescence of treated cells (PI-A+) [1]: 83.6%
- LD50 [2]: 4.98 mg/kg

Compound: polymyxin B [reference compound]
- bacterial colonization in liver and spleen [3]: significantly less than that in the negative control group
- LD50 [2]: 6.52 mg/kg
- survival rate of mice [4]: 50%
